Measurements taken from EPA's ToxValDB 9.5 (doi:10.2903/j.efsa.2010.1876).
Values after ≈ are worked out from the molar mass of the structure shown. Values joined by “and” are separate entries in the source; they are usually repeats but may differ in a detail not shown here. Identical values can stand only once.

How the values were obtained:
Anas platyrhynchos = conditions: reproductive
Apis mellifera = conditions: acute; duration: 48 hours; oral; unspecified; mortality
Colinus virginianus = conditions: acute; oral; diet; mortality
Coturnix japonica = conditions: acute; oral; mortality
Daphnia magna = conditions: chronic/long-term; duration: 22 days; reproduction
Lepomis macrochirus = conditions: acute; duration: 96 hours; mortality
Mus musculus = conditions: acute; oral; mortality
Oncorhynchus mykiss = conditions: chronic/long-term; duration: 28 days; growth
Typhlodromus pyri = assay: LR50; higher = less toxic; conditions: not reported; mortality

| Compound | NOEC (Anas platyrhynchos) [mg/kg-day] | LD50 (Apis mellifera) [µg/piece] | LC50 (Colinus virginianus) [mg/kg-day] | LD50 (Coturnix japonica) [mg/kg] | NOEC (Daphnia magna) [mg/L] | LC50 (Lepomis macrochirus) [µg/mL] | LD50 (Mus musculus) [mg/kg] | NOEC (Oncorhynchus mykiss) [mg/L] | NOAEL (Rattus norvegicus; chronic, duration: 2 years, clinical chemistry) [mg/kg-day] | NOAEL (Rattus norvegicus; developmental, development) [mg/kg-day] | LC50 (Tagia sp.; acute, mortality) [mg/kg] | NOEC (Tagia sp.; chronic/long-term, duration: 56 days) [mg/kg] | LR50 (Typhlodromus pyri) [g/ha] | NOAEL (Rattus norvegicus; reproduction developmental) |
| --- | --- | --- | --- | --- | --- | --- | --- | --- | --- | --- | --- | --- | --- | --- |
| CC(C)(C)[C@H](O)[C@H](Cc1ccc(Cl)cc1)n1cncn1 (racemic) [Paclobutrazol] | 119 | > 2 | > 2790 | > 2100 | 0.32 | 23.6 (≈ 80.3 µM) | 490 | 3.3 | 2.2 | 10 | > 1000 | 1.69 | > 1000 | – |
| NC(Cc1ncn[nH]1)C(=O)O (stereo not given) [1,2,4-Triazole-3-alanine] | – | – | – | – | – | – | – | – | – | 100 | – | – | – | – |
| c1nc[nH]n1 [1H-1,2,4-Triazole] | – | – | – | – | – | – | – | – | – | – | – | – | – | 17 mg/kg-day and 30 mg/kg-day |
